In article PMC8162404, “Proteomimetic surface fragments distinguish targets by function” (Chemical Science, 2020):

Columns and labels:
CaM [1] = target: T1, CaM (Bos taurus, UniProt P62157); assay: Pull-down assay with immobilized protein and LSM libraries; type: binding, bovine; settings: H14 library; 1:2 stoichiometry assumed; read-out: Surface mapping KD (apparent)
T1 construct: made in house; host or cells: E. coli BL21 (DE3)
Summary of the method: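 CaM buffer was 20 mM HEPES pH 7.4, 150 mM NaCl, 5 mM CaCl2. LSM sublibrary members ([…]) incubated 30 min, RT, with equimolar His-tagged protein on Co-NTA resin. HPLC-MS measured unbound probes; bound fraction relative to resin-only background gave dissociation constants.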

Gal-1 [2] = target: T2, Gal-1 (Homo sapiens, UniProt P09382); assay: as above; type: binding; settings: H14 library; 1:1 binding assumed; read-out: Surface mapping KD (apparent)
T2 construct: made in house; host or cells: E. coli BL21(DE3)
T2 sequence (P09382 whole entry): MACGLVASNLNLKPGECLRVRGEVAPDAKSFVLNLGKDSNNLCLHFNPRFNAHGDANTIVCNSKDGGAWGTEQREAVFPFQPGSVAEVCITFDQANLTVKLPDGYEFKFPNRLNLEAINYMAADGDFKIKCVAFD
Summary of the method: (§1)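 Buffers were HEPES pH 7.4 with 150 mM NaCl, plus 1 mM TCEP and 1 mM CaCl2 (50 mM HEPES) for S100A4 and S100B, 1 mM TCEP for Gal-1, and no additive for RecQ-WH. Immobilized protein at 64 µM was equilibrated 30 min with the LSM sublibrary, and unbound probes were measured by LC-MS.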

S100A4 = target: T3, S100A4 (Homo sapiens, UniProt P26447); assay: as above; type: binding; settings: H14 library; 1:1 binding assumed; read-out: Surface mapping KD (apparent)
T3 construct: made in house; host or cells: Escherichia coli BL21(DE3)
T3 sequence (P26447 whole entry): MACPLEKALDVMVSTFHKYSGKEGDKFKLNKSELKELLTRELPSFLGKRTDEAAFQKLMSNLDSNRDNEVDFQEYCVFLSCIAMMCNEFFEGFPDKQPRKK
Summary of the method: as §1

S100B [3] = target: T4, S100B (Homo sapiens, UniProt P04271); assay: as above; type: binding; settings: H14 library; 1:1 binding assumed; read-out: Surface mapping KD (apparent)
T4 construct: made in house; host or cells: Escherichia coli BL21(DE3)
T4 sequence (P04271 1-92): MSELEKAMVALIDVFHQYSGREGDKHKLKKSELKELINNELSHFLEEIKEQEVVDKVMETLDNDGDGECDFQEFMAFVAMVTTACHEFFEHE
Summary of the method: as §1

S100B [4] = target: T4, S100B; assay: Competition pull-down with native ligand RSK1 (689–735); type: binding; settings: H14 library; competitor peptide 200 µM; read-out: Surface mapping KD (apparent), competition
Gal-1 [5] = target: T2, Gal-1; assay: Competition pull-down with lactose; type: binding; settings: H14 library; lactose 10 mM; read-out: Surface mapping KD (apparent), competition
Summary of the method: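 His6-tagged proteins immobilized on Co-NTA resin at 64 µM final with 64-member LSM foldamer sublibraries (1 M each, as printed) in pH 7.4 HEPES/NaCl buffers (Ca2+/TCEP per target), 30 min RT; competitor peptides 200 µM final, lactose 10 mM for Gal-1. Bound fractions from LC-MS loss vs protein-free resin; KD assuming 1:1 binding.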

CaM [6] = target: T1, CaM; assay: Competition pull-down with native ligand TRPV1-Ct15; type: binding, bovine; settings: H14 library; competitor peptide 200 µM; read-out: Surface mapping KD (apparent), competition

Compound	Kd (CaM [1]) [µM]	Kd (Gal-1 [2]) [µM]	Kd (S100A4) [µM]	Kd (S100B [3]) [µM]	Kd (S100B [4]) [µM]	Kd (Gal-1 [5]) [µM]	Kd (CaM [6]) [µM]
CSCC[C@@H](CC(=O)N[C@H]1CCCC[C@@H]1C(N)=O)NC(=O)[C@H]1CCCC[C@@H]1NC(=O)[C@H]1CCCC[C@@H]1NC(=O)C[C@H](C)NC(=O)[C@H]1CCCC[C@@H]1N [H14 AM]	98	307	10	256	359	487	–
CC(C)[C@@H](CC(=O)N[C@H]1CCCC[C@@H]1C(N)=O)NC(=O)[C@H]1CCCC[C@@H]1NC(=O)[C@H]1CCCC[C@@H]1NC(=O)C[C@H](C)NC(=O)[C@H]1CCCC[C@@H]1N [H14 AV]	42	100	6	153	316	201	–
C[C@@H](CC(=O)N[C@H]1CCCC[C@@H]1C(=O)N[C@H]1CCCC[C@@H]1C(=O)N[C@H](CC(=O)N[C@H]1CCCC[C@@H]1C(N)=O)Cc1c[nH]c2ccccc12)NC(=O)[C@H]1CCCC[C@@H]1N [H14 AW]	2	203	42	42	127	–	297
CSCC[C@@H](CC(=O)N[C@H]1CCCC[C@@H]1C(N)=O)NC(=O)[C@H]1CCCC[C@@H]1NC(=O)[C@H]1CCCC[C@@H]1NC(=O)C[C@H](CC(=O)O)NC(=O)[C@H]1CCCC[C@@H]1N [H14 DM]	–	–	–	–	159	397	322
CC[C@H](C)[C@@H](CC(=O)N[C@H]1CCCC[C@@H]1C(=O)N[C@H]1CCCC[C@@H]1C(=O)N[C@H](CC(=O)N[C@H]1CCCC[C@@H]1C(N)=O)[C@@H](C)O)NC(=O)[C@H]1CCCC[C@@H]1N [H14 IT]	51	185	19	142	373	333	–
CC(C)C[C@@H](CC(=O)N[C@H]1CCCC[C@@H]1C(=O)N[C@H]1CCCC[C@@H]1C(=O)N[C@@H](C)CC(=O)N[C@H]1CCCC[C@@H]1C(N)=O)NC(=O)[C@H]1CCCC[C@@H]1N [H14 LA]	8	160	34	170	294	425	–
CSCC[C@@H](CC(=O)N[C@H]1CCCC[C@@H]1C(=O)N[C@H]1CCCC[C@@H]1C(=O)N[C@@H](CC(N)=O)CC(=O)N[C@H]1CCCC[C@@H]1C(N)=O)NC(=O)[C@H]1CCCC[C@@H]1N [H14 MN]	122	399	–	–	449	495	–
CSCC[C@@H](CC(=O)N[C@H]1CCCC[C@@H]1C(=O)N[C@H]1CCCC[C@@H]1C(=O)N[C@@H](CCC(N)=O)CC(=O)N[C@H]1CCCC[C@@H]1C(N)=O)NC(=O)[C@H]1CCCC[C@@H]1N [H14 MQ]	145	–	476	–	394	–	489
CSCC[C@@H](CC(=O)N[C@H]1CCCC[C@@H]1C(=O)N[C@H]1CCCC[C@@H]1C(=O)N[C@@H](CO)CC(=O)N[C@H]1CCCC[C@@H]1C(N)=O)NC(=O)[C@H]1CCCC[C@@H]1N [H14 MS]	106	–	320	–	391	–	431
CSCC[C@@H](CC(=O)N[C@H]1CCCC[C@@H]1C(=O)N[C@H]1CCCC[C@@H]1C(=O)N[C@H](CC(=O)N[C@H]1CCCC[C@@H]1C(N)=O)[C@@H](C)O)NC(=O)[C@H]1CCCC[C@@H]1N [H14 MT]	63	424	148	476	337	–	–
NC(=O)C[C@@H](CC(=O)N[C@H]1CCCC[C@@H]1C(N)=O)NC(=O)[C@H]1CCCC[C@@H]1NC(=O)[C@H]1CCCC[C@@H]1NC(=O)C[C@H](CC(N)=O)NC(=O)[C@H]1CCCC[C@@H]1N [H14 NN]	162	246	–	–	120	444	290
NC(=O)CC[C@@H](CC(=O)N[C@H]1CCCC[C@@H]1C(N)=O)NC(=O)[C@H]1CCCC[C@@H]1NC(=O)[C@H]1CCCC[C@@H]1NC(=O)C[C@H](CC(N)=O)NC(=O)[C@H]1CCCC[C@@H]1N [H14 NQ]	190	257	–	–	478	–	222
NC(=O)C[C@@H](CC(=O)N[C@H]1CCCC[C@@H]1C(=O)N[C@H]1CCCC[C@@H]1C(=O)N[C@H](CC(=O)N[C@H]1CCCC[C@@H]1C(N)=O)Cc1ccc(O)cc1)NC(=O)[C@H]1CCCC[C@@H]1N [H14 NY]	109	210	–	193	444	337	270
NC(=O)CC[C@@H](CC(=O)N[C@H]1CCCC[C@@H]1C(=O)N[C@H]1CCCC[C@@H]1C(=O)N[C@H](CC(=O)N[C@H]1CCCC[C@@H]1C(N)=O)Cc1ccccc1)NC(=O)[C@H]1CCCC[C@@H]1N [H14 QF]	39	285	443	83	425	319	211
NC(=O)CC[C@@H](CC(=O)N[C@H]1CCCC[C@@H]1C(=O)N[C@H]1CCCC[C@@H]1C(=O)N[C@H](CC(=O)N[C@H]1CCCC[C@@H]1C(N)=O)Cc1ccc(O)cc1)NC(=O)[C@H]1CCCC[C@@H]1N [H14 QY]	92	174	–	166	188	350	345
NC(=O)CC[C@@H](CC(=O)N[C@H]1CCCC[C@@H]1C(N)=O)NC(=O)[C@H]1CCCC[C@@H]1NC(=O)[C@H]1CCCC[C@@H]1NC(=O)C[C@H](CO)NC(=O)[C@H]1CCCC[C@@H]1N [H14 SQ]	176	275	–	–	445	460	292
NC(=O)[C@H]1CCCC[C@@H]1NC(=O)C[C@H](Cc1ccc(O)cc1)NC(=O)[C@H]1CCCC[C@@H]1NC(=O)[C@H]1CCCC[C@@H]1NC(=O)C[C@H](CO)NC(=O)[C@H]1CCCC[C@@H]1N [H14 SY]	90	318	–	225	109	348	244
C[C@@H](O)[C@@H](CC(=O)N[C@H]1CCCC[C@@H]1C(=O)N[C@H]1CCCC[C@@H]1C(=O)N[C@@H](CC(N)=O)CC(=O)N[C@H]1CCCC[C@@H]1C(N)=O)NC(=O)[C@H]1CCCC[C@@H]1N [H14 TN]	176	275	–	–	445	460	292
CC(C)[C@@H](CC(=O)N[C@H]1CCCC[C@@H]1C(=O)N[C@H]1CCCC[C@@H]1C(=O)N[C@@H](C)CC(=O)N[C@H]1CCCC[C@@H]1C(N)=O)NC(=O)[C@H]1CCCC[C@@H]1N [H14 VA]	38	114	35	299	393	375	–
CC(C)[C@@H](CC(=O)N[C@H]1CCCC[C@@H]1C(=O)N[C@H]1CCCC[C@@H]1C(=O)N[C@@H](CCCNC(=N)N)CC(=O)N[C@H]1CCCC[C@@H]1C(N)=O)NC(=O)[C@H]1CCCC[C@@H]1N [H14 VR]	40	289	284	77	221	–	–
CC(C)[C@@H](CC(=O)N[C@H]1CCCC[C@@H]1C(=O)N[C@H]1CCCC[C@@H]1C(=O)N[C@H](CC(=O)N[C@H]1CCCC[C@@H]1C(N)=O)[C@@H](C)O)NC(=O)[C@H]1CCCC[C@@H]1N [H14 VT]	142	347	79	382	484	–	–
NC(=O)C[C@@H](CC(=O)N[C@H]1CCCC[C@@H]1C(N)=O)NC(=O)[C@H]1CCCC[C@@H]1NC(=O)[C@H]1CCCC[C@@H]1NC(=O)C[C@H](Cc1ccc(O)cc1)NC(=O)[C@H]1CCCC[C@@H]1N [H14 YN]	111	313	435	–	476	271	–
NC(=O)CC[C@@H](CC(=O)N[C@H]1CCCC[C@@H]1C(N)=O)NC(=O)[C@H]1CCCC[C@@H]1NC(=O)[C@H]1CCCC[C@@H]1NC(=O)C[C@H](Cc1ccc(O)cc1)NC(=O)[C@H]1CCCC[C@@H]1N [H14 YQ]	123	238	227	480	449	439	–
C[C@@H](O)[C@@H](CC(=O)N[C@H]1CCCC[C@@H]1C(N)=O)NC(=O)[C@H]1CCCC[C@@H]1NC(=O)[C@H]1CCCC[C@@H]1NC(=O)C[C@H](Cc1ccc(O)cc1)NC(=O)[C@H]1CCCC[C@@H]1N [H14 YT]	30	396	222	416	403	–	–
